In the NIST ThermoML archive (doi:10.1021/je060271a):
“And” between values parts separate entries of the source, which are not always exact repeats. Identical values can stand only once. ± gives the expanded uncertainty stated by the source.

Conditions: Liquid, Vibrating tube method

CCCCCCCC(=O)OCC(COC(=O)CCCCCCC)(COC(=O)CCCCCCC)COC(=O)CCCCCCC [pentaerythritol tetraoctanoate]
Conditions	mass density
323.16 K, 4757.8 kPa	943.8 ± 1.2 kg/m3
323.16 K, 4775.8 kPa	944 ± 1.2 kg/m3
323.16 K, 4790.7 kPa	943.8 ± 1.2 kg/m3
323.16 K, 4806.4 kPa	943.9 ± 1.2 kg/m3
323.16 K, 4825.1 kPa	943.9 ± 1.2 kg/m3
323.16 K, 4840.2 kPa	943.9 ± 1.2 kg/m3
323.16 K, 4856.4 kPa	943.9 ± 1.2 kg/m3
323.16 K, 4875.1 kPa	943.9 ± 1.2 kg/m3
323.16 K, 5122 kPa	944.1 ± 1.2 kg/m3
323.16 K, 5143.5 kPa	944.1 ± 1.2 kg/m3
323.16 K, 5161 kPa	944.2 ± 1.2 kg/m3
323.16 K, 5179 kPa	944.2 ± 1.2 kg/m3
323.16 K, 5197.1 kPa	944.1 ± 1.2 kg/m3
323.16 K, 5335.6 kPa	944.3 ± 1.2 kg/m3
323.16 K, 5398.2 kPa	944.3 ± 1.2 kg/m3
323.16 K, 5417.6 kPa	944.3 ± 1.2 kg/m3
323.16 K, 5438 kPa	944.3 ± 1.2 kg/m3
323.16 K, 5461.9 kPa	944.3 ± 1.2 kg/m3
323.16 K, 5481.8 kPa	944.5 ± 1.2 kg/m3
323.16 K, 5502.5 kPa	944.5 ± 1.2 kg/m3
323.16 K, 5527.1 kPa	944.4 ± 1.2 kg/m3
323.16 K, 5547.9 kPa	944.4 ± 1.2 kg/m3
323.16 K, 5568.6 kPa	944.4 ± 1.2 kg/m3
323.16 K, 5590.2 kPa	944.4 ± 1.2 kg/m3
323.16 K, 5611.9 kPa	944.4 ± 1.2 kg/m3
323.16 K, 5637.6 kPa	944.4 ± 1.2 kg/m3
323.16 K, 5659.6 kPa	944.4 ± 1.2 kg/m3
323.16 K, 5703.9 kPa	944.5 ± 1.2 kg/m3
323.16 K, 5774.4 kPa	944.6 ± 1.2 kg/m3
323.16 K, 5797.1 kPa	944.6 ± 1.2 kg/m3
323.16 K, 5824.6 kPa	944.7 ± 1.2 kg/m3
323.16 K, 5870.9 kPa	944.6 ± 1.2 kg/m3
323.16 K, 6078.5 kPa	944.7 ± 1.2 kg/m3
323.16 K, 6238.8 kPa	944.8 ± 1.2 kg/m3
323.16 K, 6265.6 kPa	944.9 ± 1.2 kg/m3
323.16 K, 6297.7 kPa	944.9 ± 1.2 kg/m3
323.16 K, 6324.9 kPa	944.9 ± 1.2 kg/m3
323.16 K, 6352.7 kPa	944.9 ± 1.2 kg/m3
323.16 K, 6380.2 kPa	944.9 ± 1.2 kg/m3
323.16 K, 12370 kPa	948.8 ± 1.2 kg/m3
323.16 K, 12396 kPa	948.8 ± 1.2 kg/m3
323.16 K, 12424 kPa	948.8 ± 1.2 kg/m3
323.16 K, 20026 kPa	953.6 ± 1.2 kg/m3
323.16 K, 21868 kPa	954.6 ± 1.2 kg/m3
323.16 K, 21910 kPa	954.7 ± 1.2 kg/m3
323.16 K, 22807 kPa	955.3 ± 1.2 kg/m3
323.16 K, 27149 kPa	957.8 ± 1.2 kg/m3
323.16 K, 27197 kPa	957.9 ± 1.2 kg/m3
323.16 K, 27237 kPa	957.9 ± 1.2 kg/m3
323.16 K, 27277 kPa	957.9 ± 1.2 kg/m3
323.16 K, 27317 kPa	957.9 ± 1.2 kg/m3
323.16 K, 27366 kPa	957.9 ± 1.2 kg/m3
323.16 K, 27451 kPa	958 ± 1.2 kg/m3
323.16 K, 27504 kPa	958 ± 1.2 kg/m3
323.16 K, 27997 kPa	958.3 ± 1.2 kg/m3
323.16 K, 28020 kPa	958.4 ± 1.2 kg/m3
323.16 K, 28046 kPa	958.3 ± 1.2 kg/m3
323.16 K, 28069 kPa	958.3 ± 1.2 kg/m3
343.14 K, 4667.8 kPa	929.4 ± 1.1 kg/m3
343.14 K, 4690.1 kPa	929.4 ± 1.1 kg/m3
343.14 K, 8016.3 kPa	931.8 ± 1.2 kg/m3
343.14 K, 8048.6 kPa	931.8 ± 1.2 kg/m3
343.14 K, 8086.2 kPa	932 ± 1.2 kg/m3
343.14 K, 8118.6 kPa	931.9 ± 1.2 kg/m3
343.14 K, 8397.9 kPa	932.1 ± 1.2 kg/m3
343.14 K, 8438.9 kPa	932.1 ± 1.2 kg/m3
343.14 K, 8473.8 kPa	932.1 ± 1.2 kg/m3
343.14 K, 8822.1 kPa	932.4 ± 1.2 kg/m3
343.14 K, 8860.4 kPa	932.5 ± 1.2 kg/m3
343.14 K, 8906.8 kPa	932.5 ± 1.2 kg/m3
343.14 K, 8945 kPa	932.5 ± 1.2 kg/m3
343.14 K, 9418.7 kPa	932.8 ± 1.2 kg/m3
343.14 K, 10399 kPa	933.5 ± 1.2 kg/m3
343.14 K, 11681 kPa	934.4 ± 1.2 kg/m3
343.14 K, 13765 kPa	935.9 ± 1.2 kg/m3
343.14 K, 16874 kPa	938 ± 1.2 kg/m3
343.14 K, 17179 kPa	938.2 ± 1.2 kg/m3
343.14 K, 17211 kPa	938.2 ± 1.2 kg/m3
343.14 K, 17250 kPa	938.2 ± 1.2 kg/m3
343.14 K, 17283 kPa	938.3 ± 1.2 kg/m3
343.14 K, 17315 kPa	938.2 ± 1.2 kg/m3
343.14 K, 20086 kPa	940.3 ± 1.2 kg/m3
343.14 K, 20133 kPa	940.1 ± 1.2 kg/m3
343.14 K, 20456 kPa	940.4 ± 1.2 kg/m3
343.14 K, 20478 kPa	940.5 ± 1.2 kg/m3
343.14 K, 20501 kPa	940.3 ± 1.2 kg/m3
343.14 K, 22979 kPa	942 ± 1.2 kg/m3
343.14 K, 24214 kPa	942.8 ± 1.2 kg/m3
343.14 K, 26657 kPa	944.4 ± 1.2 kg/m3
343.14 K, 30407 kPa	946.7 ± 1.2 kg/m3
343.14 K, 30444 kPa	946.7 ± 1.2 kg/m3
343.14 K, 30488 kPa	946.6 ± 1.2 kg/m3
343.14 K, 30968 kPa	947 ± 1.2 kg/m3
343.14 K, 32801 kPa	948 ± 1.2 kg/m3
343.15 K, 105.1 kPa	926 ± 1.1 kg/m3
343.15 K, 105.3 kPa	926.1 ± 1.1 kg/m3 and 926 ± 1.1 kg/m3 and 926.2 ± 1.1 kg/m3
343.15 K, 105.5 kPa	926 ± 1.1 kg/m3
343.15 K, 105.6 kPa	925.9 ± 1.1 kg/m3
343.15 K, 106 kPa	926.1 ± 1.1 kg/m3
343.15 K, 108.9 kPa	926 ± 1.1 kg/m3
343.15 K, 123.5 kPa	926.1 ± 1.1 kg/m3
343.15 K, 154.3 kPa	926 ± 1.1 kg/m3
343.15 K, 224 kPa	926.1 ± 1.1 kg/m3
343.15 K, 227.5 kPa	926.1 ± 1.1 kg/m3
343.15 K, 231.8 kPa	926 ± 1.1 kg/m3
343.15 K, 235.3 kPa	926.1 ± 1.1 kg/m3
343.15 K, 239.5 kPa	926.1 ± 1.1 kg/m3
343.15 K, 243.8 kPa	926.3 ± 1.1 kg/m3
343.15 K, 248 kPa	926.2 ± 1.1 kg/m3
343.15 K, 253 kPa	926.2 ± 1.1 kg/m3
343.15 K, 257.4 kPa	926.1 ± 1.1 kg/m3
343.15 K, 262.8 kPa	926.2 ± 1.1 kg/m3
343.15 K, 268.2 kPa	926.1 ± 1.1 kg/m3
343.15 K, 273.2 kPa	926.1 ± 1.1 kg/m3
343.15 K, 279.6 kPa	926.1 ± 1.1 kg/m3
343.15 K, 285.2 kPa	926.2 ± 1.1 kg/m3
343.15 K, 292.1 kPa	926.2 ± 1.1 kg/m3
343.15 K, 299.6 kPa	926.2 ± 1.1 kg/m3
343.15 K, 305.7 kPa	926.2 ± 1.1 kg/m3
343.15 K, 313.9 kPa	926.1 ± 1.1 kg/m3
343.15 K, 321 kPa	926.1 ± 1.1 kg/m3
343.15 K, 329.7 kPa	926.3 ± 1.1 kg/m3
343.15 K, 338 kPa	926.3 ± 1.1 kg/m3
343.15 K, 347.9 kPa	926.2 ± 1.1 kg/m3
343.15 K, 358.4 kPa	926.1 ± 1.1 kg/m3
343.15 K, 367.9 kPa	926.2 ± 1.1 kg/m3
343.15 K, 379.9 kPa	926.1 ± 1.1 kg/m3
343.15 K, 392.9 kPa	926.3 ± 1.1 kg/m3
343.15 K, 404.2 kPa	926 ± 1.1 kg/m3
343.15 K, 419.5 kPa	926.3 ± 1.1 kg/m3
343.15 K, 433.8 kPa	926.1 ± 1.1 kg/m3
343.15 K, 449.4 kPa	926.1 ± 1.1 kg/m3
343.15 K, 460.9 kPa	926.1 ± 1.1 kg/m3
343.15 K, 471.1 kPa	926.2 ± 1.1 kg/m3
343.15 K, 480.2 kPa	926.3 ± 1.1 kg/m3
343.15 K, 491.8 kPa	926.5 ± 1.1 kg/m3
343.15 K, 504 kPa	926.2 ± 1.1 kg/m3
343.15 K, 514.2 kPa	926.3 ± 1.1 kg/m3
343.15 K, 527.6 kPa	926.3 ± 1.1 kg/m3
343.15 K, 538.9 kPa	926.2 ± 1.1 kg/m3
343.15 K, 553.3 kPa	926.3 ± 1.1 kg/m3
343.15 K, 568.4 kPa	926.4 ± 1.1 kg/m3
343.15 K, 582.5 kPa	926.4 ± 1.1 kg/m3
343.15 K, 596.2 kPa	926.4 ± 1.1 kg/m3
343.15 K, 613.8 kPa	926.4 ± 1.1 kg/m3
343.15 K, 632.2 kPa	926.4 ± 1.1 kg/m3
343.15 K, 648.4 kPa	926.4 ± 1.1 kg/m3
